Target: rat PGT (Rattus norvegicus (Rat), UniProt Q00910)
Experiment: [3H]PGE2 uptake inhibition in MDCK cells stably transfected with rat PGT (percent inhibition and IC50)
Assay type: cell-based
Settings: for Inh (% of Ctl) 0.5 μM: 0.5 μM compound; for Inh (% of Ctl) 0.5 μM / Inh (% of Ctl) 2.5 μM / Inh (% of Ctl) 5 μM / Inh (% of Ctl) 0.1 μM / Inh (% of Ctl) 1 μM / Inh (% of Ctl) 10 μM: inhibition of [3H]PGE2 uptake; for Inh (% of Ctl) 2.5 μM: 2.5 μM compound; for Inh (% of Ctl) 5 μM: 5 μM compound; for Inh (% of Ctl) 0.1 μM: 0.1 μM compound; for IC50: [3H]PGE2 uptake, MDCK cells stably transfected with rat PGT; for Inh (% of Ctl) 1 μM: 1 μM compound; for Inh (% of Ctl) 10 μM: 10 μM compound
Protocol: MDCK cells stably transfected with rat PGT (Endo et al., 2002) were seeded at 15-20% confluence on 24-well plates. The day on which the cells were seeded was considered day 1. PGE2 uptake experiments were conducted on day 4. All of the PGE2 uptake experiments were conducted at room temperature. On day 4, cells were washed twice with Waymouth buffer (135 mM NaCl, 13 mM H-Hepes, 13 mM Na-Hepes, 2.5 mM CaCl2, 1.2 mM MgCl2, 0.8 mM MgSO4, 5 mM KCl, and 28 mM D-glucose). Then 200 μL of Waymouth buffer containing [^3H]PGE2 (purchased from Perkin Elmer) was added to each well. At the designed time, the uptake of [^3H]PGE2 was stopped by aspiration of uptake buffer; this was followed by immediate washing twice with 500 μL of chilled Waymouth buffer. Cells were then lysed with 100 μL lysis buffer containing 0.25% SDS and 0.05 N NaOH. 1.5 mL of scintillation solution was added to each well, and intracellular [^3H]PGE2 was counted by MicroBeta Counter.
For preliminary testing of the compounds, 20 μL of Waymouth buffer containing the compound was added to each well; this was immediately followed by the addition of 180 μL of Waymouth buffer containing [^3H]PGE2. In each well, the total volume of uptake medium was 200 μL. Organic compounds were first dissolved in EtOH and then diluted in Waymouth buffer. The percent inhibition of [^3H]PGE2 uptake by compounds was calculated as [(uptakevehicle−uptakeinhibitor)÷(uptakevehicle)]×100.
IC50 was calculated by fitting an equation of y=m1−m1*(m0/(m2+m0)).

| Structure (SMILES) | Inh (% of Ctl) 0.5 μM | Inh (% of Ctl) 2.5 μM | Inh (% of Ctl) 5 μM | Inh (% of Ctl) 0.1 μM | IC50 [nM] | Inh (% of Ctl) 1 μM | Inh (% of Ctl) 10 μM |
| --- | --- | --- | --- | --- | --- | --- | --- |
| O=C(NCCOCCOCCNc1nc(Nc2ccc(O)cc2)nc(Nc2ccc(C(=O)N[C@H](C(=O)O)c3ccccc3)cc2)n1)c1ccccc1 [compound 80] | 0.7 % of Ctl | 21.8 % of Ctl | 57.2 % of Ctl | – | – | – | – |
| COC(=O)COCCOCCNc1nc(Nc2ccccc2)nc(Nc2ccc(O)cc2)n1 [compound 49] | – | – | – | – | – | 1.7 % of Ctl | 12.5 % of Ctl |
| COC(=O)[C@H](NC(=O)c1ccc(Nc2nc(NCCOCCOCCNC(=O)c3ccccc3)nc(Nc3ccc(O)cc3)n2)cc1)c1ccccc1 [compound 73] | – | 38.9 % of Ctl | 75.3 % of Ctl | – | – | – | – |
| O=C(NCCOCCOCCNc1nc(Nc2ccc(O)cc2)nc(Nc2ccc3c(c2)C(=O)NC3=O)n1)c1ccccc1 [compound 77] | 1.8 % of Ctl | 4.3 % of Ctl | 23.2 % of Ctl | – | – | – | – |
| O=C(NCCOCCOCCNc1nc(Nc2ccccc2)nc(Nc2ccc(OCc3ccccc3)cc2)n1)c1ccccc1 [compound 2] | 1.6 % of Ctl | – | 6.5 % of Ctl | – | – | – | – |
| COC(=O)CCCCCCNc1nc(Nc2ccccc2)nc(Nc2ccc(O)cc2)n1 [compound 50] | – | – | – | – | – | 9.3 % of Ctl | 15.1 % of Ctl |
| CN(C)C(=O)c1ccc(Nc2nc(NCCOCCOCCNC(=O)c3ccccc3)nc(Nc3ccc(O)cc3)n2)cc1 [compound 15] | 15.0 % of Ctl | – | 16.6 % of Ctl | – | – | – | – |
| O=C(O)C(F)(F)F.[N-]=[N+]=NCCOCCOCCNC(=O)c1ccc(Nc2nc(NCCOCCOCCNC(=O)c3ccccc3)nc(Nc3ccc(O)cc3)n2)cc1 [compound 8] | 52.3 % of Ctl | – | – | – | 224 | – | – |
| O=C(NCCOCCOCCNc1nc(Nc2ccccc2)nc(Nc2ccc(O)c(Cl)c2)n1)c1ccccc1 [compound 56] | – | – | – | – | – | 38.0 % of Ctl | 80.5 % of Ctl |
| O=C(NCCOCCOCCNc1nc(Nc2ccc(O)cc2)nc(Nc2ccc(C(=O)OCc3ccccc3)cc2)n1)c1ccccc1 [compound 69] | 24.9 % of Ctl | – | 83.2 % of Ctl | – | 890 | – | – |
| NCCOCCOCCNc1nc(Nc2ccccc2)nc(Nc2ccc(O)cc2)n1 [compound 45] | – | – | – | – | – | 5.0 % of Ctl | 12.9 % of Ctl |
| O=C(O)Cc1ccc(Nc2nc(NCCOCCOCCNC(=O)c3ccccc3)nc(Nc3ccccc3)n2)cc1 [compound 57] | – | – | 29.5 % of Ctl | – | 5570 | 27.4 % of Ctl | 56.6 % of Ctl |
| O=C(NCCOCCOCCNc1nc(Nc2ccccc2)nc(Nc2ccc(O)cc2)n1)c1ccncc1 [compound 29] | – | – | – | – | – | 15.9 % of Ctl | 49.6 % of Ctl |
| O=C(NCCOCCOCCNc1nc(Nc2ccccc2)nc(Nc2ccc(O)cc2)n1)c1ccccc1C(F)(F)F [compound 72] | – | – | 66.1 % of Ctl | – | – | 19.7 % of Ctl | 75.3 % of Ctl |
| O=C(NCCOCCOCCNc1nc(Nc2ccc(O)cc2)nc(Nc2ccc(C(=O)NCc3ccccc3)c(C(F)(F)F)c2)n1)c1ccccc1 [compound 82] | 2.1 % of Ctl | 5.0 % of Ctl | 47.6 % of Ctl | – | – | – | – |
| COc1ccc(C(=O)NCCOCCOCCNc2nc(Nc3ccccc3)nc(Nc3ccc(O)cc3)n2)cc1 [compound 32] | – | – | – | – | – | 29.0 % of Ctl | 71.0 % of Ctl |

Continued, values first:

| Inh (% of Ctl) 0.5 μM | Inh (% of Ctl) 2.5 μM | Inh (% of Ctl) 5 μM | Inh (% of Ctl) 0.1 μM | IC50 [nM] | Inh (% of Ctl) 1 μM | Inh (% of Ctl) 10 μM | Structure (SMILES) |
| --- | --- | --- | --- | --- | --- | --- | --- |
| 61.8 % of Ctl | 77.1 % of Ctl | 89.4 % of Ctl | 81.3 % of Ctl | 23.7 | – | – | O=C(NCCOCCOCCNc1nc(Nc2ccc(O)cc2)nc(Nc2ccc(C(=O)NCc3ccc(F)cc3)cc2)n1)c1ccccc1 [compound 99] |
| 71.8 % of Ctl | – | – | 36.6 % of Ctl | – | 82.2 % of Ctl | – | O=C(NCCOCCOCCNc1nc(Nc2ccc(O)cc2)nc(Nc2ccc(C(=O)NCc3c(F)cccc3F)cc2)n1)c1ccccc1 [compound 128] |
| 60.8 % of Ctl | 78.3 % of Ctl | 76.6 % of Ctl | 70.3 % of Ctl | – | – | – | O=C(NCCOCCOCCNc1nc(Nc2ccc(O)cc2)nc(Nc2ccc(C(=O)NCc3cc(Cl)cc(Cl)c3)cc2)n1)c1ccccc1 [compound 108] |
| 23.4 % of Ctl | 60.6 % of Ctl | 72.7 % of Ctl | – | – | – | – | O=C(NCCOCCOCCNc1nc(Nc2ccc(O)cc2)nc(Nc2ccc(C(=O)NCc3cccc(-c4ccccc4)c3)cc2)n1)c1ccccc1 [compound 90] |
| 4.5 % of Ctl | – | – | 11.5 % of Ctl | – | 10.9 % of Ctl | – | CC(=O)NCCOCCNc1nc(Nc2ccc(O)cc2)nc(Nc2ccc(C(=O)NCc3ccccc3)cc2)n1 [compound 140] |
| 60.6 % of Ctl | 78.3 % of Ctl | 93.6 % of Ctl | 69.6 % of Ctl | 31.3 | – | – | O=C(NCCOCCOCCNc1nc(Nc2ccc(O)cc2)nc(Nc2ccc(C(=O)NCc3ccccc3F)cc2)n1)c1ccccc1 [compound 110] |
| 59.1 % of Ctl | 81.5 % of Ctl | 93.2 % of Ctl | 52.2 % of Ctl | – | – | – | O=C(NCCOCCOCCNc1nc(Nc2ccc(O)cc2)nc(Nc2ccc(C(=O)NCCc3ccccc3)cc2)n1)c1ccccc1 [compound 111] |
| 9.1 % of Ctl | – | – | 3.8 % of Ctl | – | 17.6 % of Ctl | – | O=C(NCc1ccc(F)cc1)c1ccc(Nc2nc(Nc3ccc(O)cc3)nc(Nc3ccc(CNCc4ccccc4)cc3)n2)cc1 [compound 149] |
| 6.7 % of Ctl | 24.9 % of Ctl | 75.1 % of Ctl | – | – | – | – | O=C(NCCOCCNc1nc(Nc2ccc(O)cc2)nc(Nc2ccc(C(=O)NCc3ccc(Cl)cc3)cc2)n1)c1ccccc1 [compound 98] |
| 61.4 % of Ctl | – | – | 41.0 % of Ctl | – | – | – | COC(=O)c1ccc(CNC(=O)c2ccc(Nc3nc(NCCOCCOCCNC(=O)c4ccccc4)nc(Nc4ccc(O)cc4)n3)cc2)cc1 [compound 114] |
| 33.7 % of Ctl | 71.3 % of Ctl | 80.6 % of Ctl | – | – | – | – | COc1ccc(CNC(=O)c2ccc(Nc3nc(NCCOCCOCCNC(=O)c4ccccc4)nc(Nc4ccc(O)cc4)n3)cc2)cc1 [compound 92] |
| – | – | 23.9 % of Ctl | – | – | 8.6 % of Ctl | 51.9 % of Ctl | O=C(CCCCCCNc1nc(Nc2ccccc2)nc(Nc2ccc(O)cc2)n1)Nc1ccccc1 [compound 96] |
| 59.8 % of Ctl | – | – | 28.5 % of Ctl | 44.8 | 70.4 % of Ctl | – | O=C(NCCOCCOCCNc1nc(Nc2ccc(C(=O)NCc3ccc(F)cc3)cc2)nc(Nc2ccc(O)c(C(=O)O)c2)n1)c1ccccc1 [compound 146] |
| 76.8 % of Ctl | – | – | 54.4 % of Ctl | – | – | – | O=C(NCCOCCOCCNc1nc(Nc2ccc(O)cc2)nc(Nc2ccc(C(=O)NCC3CCCCC3)cc2)n1)c1ccccc1 [compound 115] |
| 73.2 % of Ctl | – | – | 41.6 % of Ctl | – | 81.7 % of Ctl | – | O=C(NCCOCCOCCNc1nc(Nc2ccc(O)cc2)nc(Nc2ccc(C(=O)NCc3cc(F)cc(F)c3)cc2)n1)c1ccccc1 [compound 130] |
| 47.0 % of Ctl | – | – | 22.3 % of Ctl | – | 74.3 % of Ctl | – | O=C(NCCOCCOCCNc1nc(Nc2ccc(O)cc2)nc(Nc2ccc(C(=O)NCc3ccc(F)cc3F)cc2)n1)c1ccccc1 [compound 131] |
| 90.7 % of Ctl | – | – | 74.2 % of Ctl | 20.9 | – | – | O=C(NCCOCCNc1nc(Nc2ccc(O)cc2)nc(Nc2ccc(C(=O)NCc3ccccc3)cc2)n1)c1ccccc1 [compound 118] |
| – | – | 13.7 % of Ctl | – | – | 5.7 % of Ctl | 37.1 % of Ctl | O=C(NCCCCNc1nc(Nc2ccccc2)nc(Nc2ccc(O)cc2)n1)c1ccccc1 [compound 84] |
| 38.3 % of Ctl | 62.2 % of Ctl | 83.7 % of Ctl | – | – | – | – | O=C(NCCOCCOCCNc1nc(Nc2ccc(O)cc2)nc(Nc2ccc(C(=O)Nc3ccccc3)cc2)n1)c1ccccc1 [compound 103] |
| 29.1 % of Ctl | – | – | 11.2 % of Ctl | – | – | – | CCCCCCNc1nc(Nc2ccc(O)cc2)nc(Nc2ccc(C(=O)NCc3ccccc3)cc2)n1 [compound 120] |

From patent US8952150B2, “Prostaglandin transporter inhibitors and uses thereof” (Albert Einstein College of Medicine of Yeshiva University, priority 2009, dated 2015)
